From the NIST ThermoML archive (doi:10.1021/je800571y)

Test: xn = mol fraction of the nth substance listed
Settings: 101 kPa, Liquid

CCC(C)=O [butanone] + CC(C)CO
Settings | mass density, 293.15 K [kg/m3] | mass density, 298.15 K [kg/m3] | mass density, 303.15 K [kg/m3] | viscosity, 293.15 K [mPa·s] | viscosity, 298.15 K [mPa·s] | viscosity, 303.15 K [mPa·s]
x1 = 0.0684 | 801.9 | 797.93 | 794.21 | 3.138 | 2.611 | 2.24
x1 = 0.1365 | 802.11 | 798.06 | 794.25 | 2.429 | 2.054 | 1.78
x1 = 0.2044 | 802.32 | 798.18 | 794.29 | 1.862 | 1.566 | 1.404
x1 = 0.2721 | 802.52 | 798.29 | 794.32 | 1.426 | 1.206 | 1.104
x1 = 0.3395 | 802.72 | 798.41 | 794.36 | 1.111 | 0.9449 | 0.8637
x1 = 0.4066 | 802.92 | 798.52 | 794.39 | 0.8561 | 0.7513 | 0.676
x1 = 0.4735 | 803.13 | 798.63 | 794.42 | 0.7002 | 0.607 | 0.5418
x1 = 0.5402 | 803.33 | 798.75 | 794.46 | 0.6142 | 0.5305 | –
x1 = 0.6066 | 803.54 | 798.87 | – | 0.538 | 0.4883 | –
x1 = 0.6727 | 803.75 | 798.99 | – | 0.5271 | 0.4556 | –
x1 = 0.7387 | 803.97 | 799.12 | – | 0.5071 | 0.4444 | –
x1 = 0.8044 | 804.2 | 799.25 | – | 0.5079 | 0.4189 | –
x1 = 0.8698 | 804.43 | 799.4 | – | 0.4996 | 0.4217 | –
x1 = 0.935 | 804.67 | 799.54 | – | 0.4722 | 0.3617 | –
x1 = 1 | 804.92 | 799.7 | – | 0.3956 | 0.2828 | –
